The subject of experiment [1] is Human immunodeficiency virus. The experiment can be described thus: Antiviral activity against HIV infected in human PBMC assessed as decrease in viral p24 antigen production at 0.25 to 4 ug/ml after 14 days by ELISA. In kind it is functional, organism-based.
In experiment [2] the test system is Streptococcus pneumoniae. The experiment can be described thus: Antibacterial activity against Streptococcus pneumoniae ATCC 49619 after 18 to 24 hrs by agar dilution method. It counts as functional.
Experiment [3] concerns Haemophilus influenzae. The experiment can be described thus: Antibacterial activity against Haemophilus influenzae […] after 18 to 24 hrs by agar dilution method. It counts as functional.
Experiment [4] deals with Escherichia coli. The experiment can be described thus: Antibacterial activity against Escherichia coli ATCC 25922 after 18 to 24 hrs by agar dilution method. In kind it is functional. (In general: In agar dilution, organisms are placed on agar that contains the substance at set levels.)
Experiment [5] deals with Staphylococcus aureus. Briefly: Antibacterial activity against Staphylococcus aureus ATCC 29213 after 18 to 24 hrs by agar dilution method. In kind it is functional.
For a further experiment, the system named is Shigella sonnei. The experiment can be described thus: Antibacterial activity against Shigella sonnei […] after 18 to 24 hrs by agar dilution method. It counts as functional.
Experiment [6] is described as follows: Antibacterial activity against Salmonella group B ATCC 31194 after 18 to 24 hrs by agar dilution method. In kind it is functional. As to conditions: Salmonella sp. 'group B'.
Experiment [7] concerns Streptococcus pneumoniae. The experiment can be described thus: Antibacterial activity against Streptococcus pneumoniae after 18 to 24 hrs by agar dilution method. It counts as functional.
Experiment [8] has as its system Haemophilus influenzae. Briefly: Antibacterial activity against Haemophilus influenzae after 18 to 24 hrs by agar dilution method. It counts as functional.
Experiment [9] deals with Escherichia coli. The experiment can be described thus: Antibacterial activity against Escherichia coli after 18 to 24 hrs by agar dilution method. In kind it is functional.
The test system of experiment [10] is Staphylococcus aureus. The experiment can be described thus: Antibacterial activity against Staphylococcus aureus after 18 to 24 hrs by agar dilution method. In kind it is functional.
In another experiment the test system is Salmonella. Briefly: Antibacterial activity against Salmonella group D after 18 to 24 hrs by agar dilution method. It counts as functional.
Another experiment deals with Shigella flexneri. The experiment can be described thus: Antibacterial activity against Shigella flexneri group B after 18 to 24 hrs by agar dilution method. It counts as functional.

≈ marks a conversion by molar mass, not a printed value. Calls of active or inactive are those of the source. The calls are words filed in the database; no cut-off is given here.

Consider `Cc1ccnc2c1NC(=O)c1cccnc1N2C1CC1` [NEVIRAPINE], for which the inhibition result in experiment [1] is “Active”. The MIC (against Streptococcus pneumoniae [2]; against Haemophilus influenzae [3]; against Escherichia coli [4]; against Staphylococcus aureus [5]; against Shigella sonnei; in [6]) was 4 µg/mL (≈ 15 µM) each time. Further, the MIC in the experiment with Streptococcus pneumoniae [7], against Haemophilus influenzae [8], against Escherichia coli [9], with Staphylococcus aureus [10], with Salmonella and in the experiment with Shigella flexneri was 4 µg/mL (≈ 15 µM) in each case.

These data come from ChEMBL document CHEMBL1649556, “Lack of antimicrobial activity by the antiretroviral drug nevirapine against common bacterial pathogens” (2009).
